Structures can show the parent of a compound that is named as a salt.

By IC50 is commonly meant the concentration that inhibits the measured activity by half.
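Also: Aβ(1-42) released into conditioned medium captured by ELISA after roughly 24 h compound exposure, vehicle and inhibitor controls defining maximal and minimal inhibition.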

One test deals with production of amyloid beta protein Aβ(1-42) in human WT-APP overexpressing CHO cells. Conditions: Homo sapiens, CHO, read-out: Aβ 42 IC50.
Description: Cell-Based γ-Secretase Assay with ELISA Readout
The ability of compounds to modulate production of amyloid beta protein Aβ(1-42) was determined using human WT-APP overexpressing CHO cells. Cells were plated at 22,000 cells/100 μL well in 96 well tissue culture treated, clear plates (Falcon) in DMEM/F12 based medium and incubated for 24 hours at 37° C. […] Compounds were added in fresh medium to achieve 1% final DMSO. Appropriate vehicle and inhibitor controls were added to obtain maximum and minimum inhibition values for the assay before the plates were incubated for about 24 hours at 37° C.
Coating of ELISA assay plates was initiated by addition of 50 μL/well of an in house Aβ(1-42) specific antibody at (4 μg/mL) in 0.1 M NaHCO3 (pH 9.0) into black 384-well Maxisorp® plates (Nunc) and incubated overnight at 4° C. […] Ambient temperature incubation was allowed to proceed for a minimum of two hours before washing 2×100 μL with Wash Buffer (Dulbecco's PBS, 0.05% Tween 20). Assay Buffer (Dulbecco's PBS, 1.0% BSA (Sigma A7030), 0.05% Tween 20) 20 μL/well is then added.
After incubation overnight at 37° C., 5% CO2, 40 μL (in duplicate) of experimental conditioned media are transferred into wells of the blocked ELISA plates containing the capture antibody, followed by overnight incubation at 4° C.
After overnight incubation of the ELISA assay plates at 4° C., unbound Aβ peptides were removed thorough (4×100 μL) washes with Wash Buffer.
In the case of `COc1cc(C(=O)NCCc2ccc(C)c(C)c2)ccc1-n1cnc(C)c1` [Example 64, N-[2-(3,4-dimethyl-phenyl)ethyl]-3-methoxy-4-(4-methyl-1H-imidazol-1-yl)benzamide], the half-maximal inhibitory concentration (IC50) stood at 395 nM.

With `COc1cc(C(=O)NC2COc3ccc(Cl)cc32)ccc1-n1cnc(C)c1` (single isomer, unassigned) [Example 128, N-(5-chloro-2,3-dihydro-1-benzofuran-3-yl)-3-methoxy-4-(4-methyl-1H-imidazol-1-yl)benzamide], the 50% inhibitory concentration (IC50) was found to be 521 nM.

With `COc1cc(C(=O)NCCc2c(C)[nH]c3c(Cl)cc(Cl)cc23)ccc1-n1cnc(C)c1` [Example 51, N-[2-(5,7-dichloro-2-methyl-1H-indol-3-yl)ethyl]-3-methoxy-4-(4-methyl-1H-imidazol-1-yl)benzamide], the half-inhibitory concentration (IC50) was found to be 189 nM.

For `COc1cc(C(=O)NCCc2c(C)[nH]c3ccc(C)cc23)ccc1-n1cnc(C)c1` [Example 73, N-[2-(2,5-dimethyl-1H-indol-3-yl)ethyl]-3-methoxy-4-(4-methyl-1H-imidazol-1-yl)benzamide], the IC50 turned out to be 444 nM.

The test is the same for the next values; noted with them: Homo sapiens, CHO, read-out: Aβ 42 IC50, Geometric mean of 2-8 determinations; human WT-APP overexpressing CHO cells.
In the case of `COc1cc(C(=O)NCc2csc(-c3ccc(C(F)(F)F)cc3)n2)ccc1-n1cnc(C)c1` [Example 50, 3-methoxy-4-(4-methyl-1H-imidazol-1-yl)-N-({2-[4-(trifluoromethyl)phenyl]-1,3-thiazol-4-yl}methyl)benzamide], the concentration for half-maximal inhibition (IC50) amounted to 152 nM.

Turning to `COc1cc(C(=O)NCC(C)Oc2ccccc2Cl)ccc1-n1cnc(C)c1` (centres unmarked) [Example 74, N-[2-(2-chlorophenoxy)propyl]-3-methoxy-4-(4-methyl-1H-imidazol-1-yl)benzamide], the 50% inhibitory concentration (IC50) is 466 nM.

Consider `COc1cc(C(=O)N2CCCC[C@H]2c2ccc(C(F)(F)F)cc2)ccc1-n1cnc(C)c1` [Example 23, (2S)-1-[3-methoxy-4-(4-methyl-1H-imidazol-1-yl)benzoyl]-2-[4-(trifluoro-methyl)phenyl] piperidine], for which the IC50 came out at 838 nM.

On to `COc1cc(C(=O)N2CCC(Oc3ccccc3C(F)(F)F)CC2)ccc1-n1cnc(C)c1` [Example 91, 1-[3-methoxy-4-(4-methyl-1H-imidazol-1-yl)benzoyl]-4-[2-(trifluoromethyl)phenoxy]piperidine], for which the IC50 stood at 588 nM.

Consider `COc1cc(C(=O)NCCCCc2ccccc2)ccc1-n1cnc(C)c1` [Example 61, 3-methoxy-4-(4-methyl-1H-imidazol-1-yl)-N-(4-phenyl-butyl)benzamide], for which the IC50 stood at 356 nM.

As to `COc1cc(C(=O)N2CCCC2COc2ccccc2C(F)(F)F)ccc1-n1cnc(C)c1` (centres unmarked) [Example 134, 1-{2-methoxy-4-[(2-{[2-(tri-fluoromethyl)phenoxy]methyl}pyrrolidin-1-yl)carbonyl]phenyl}-4-methyl-1H-imidazole], the half-inhibitory concentration (IC50) came out at 675 nM.

Turning to `COc1cc(C(=O)N2CCC(COc3ccccc3C(F)(F)F)C2)ccc1-n1cnc(C)c1` (centres unmarked) [Example 132, 1-{2-methoxy-4-[(3-{[2-(tri-fluoromethyl)phenoxy]methyl}pyrrolidin-1-yl)carbonyl]phenyl}-4-methyl-1H-imidazole], the IC50 was determined as 472 nM.

The same test, now with this note: Homo sapiens, CHO, read-out: Aβ 42 IC50, Geometric mean of at least 2 determinations; human WT-APP overexpressing CHO cells.
For the molecule `COc1cc(C(=O)N2CC(COc3cccc4c3CCC4)C2)ccc1-n1cnc(C)c1` [Example 137, 1-[4-({3-[(2,3-dihydro-1H-inden-4-yloxy)methyl]azetidin-1-yl}carbonyl)-2-methoxyphenyl]-4-methyl-1H-imidazole trifluoroacetate salt], the IC50 was found to be 411 nM.

As to `CCc1ccccc1OCC1CN(C(=O)c2ccc(-n3cnc(C)c3)c(OC)c2)C1` [Example 140, 1-[4-({3-[(2-ethylphenoxy)methyl]azetidin-1-yl}carbonyl)-2-methoxyphenyl]-4-methyl-1H-imidazole trifluoroacetate salt], the IC50 was found to be 593 nM.

The same test, now with this note: Homo sapiens, CHO, read-out: Aβ 42 IC50, Single IC50 determination; human WT-APP overexpressing CHO cells.
With `COc1cc(C(=O)NCC2C3CC4CC(C3)CC2C4)ccc1-n1cnc(C)c1` (centres unmarked) [Example 40, N-(adamantan-2-ylmethyl)-3-methoxy-4-(4-methyl-1H-imidazol-1-yl)benzamide], the IC50 stood at 185 nM.

Consider `COc1cc(C(=O)N2CC[C@@H](Oc3ccccc3C(F)(F)F)C2)ccc1-n1cnc(C)c1` [Example 69, 1-[2-methoxy-4-({(3R)-3-[2-(trifluoromethyl)phenoxy]pyrrolidin-1-yl}carbonyl)phenyl]-4-methyl-1H-imidazole], for which the concentration for half-maximal inhibition (IC50) was 421 nM.

Staying with this test, now noted: read-out: Aβ 42 IC50; Geometric mean of 2-8 determinations; human WT-APP overexpressing CHO cells.
Consider `COc1cc(C(=O)N(C)Cc2ccc3ccccc3c2)ccc1-n1cnc(C)c1` [Example 22, 3-methoxy-N-methyl-4-(4-methyl-1H-imidazol-1-yl)-N-(2-naphthyl-methyl) benzamide], for which the IC50 stood at 977 nM.

For `COc1cc(C(=O)NCc2cnc(-c3ccccc3)s2)ccc1-n1cnc(C)c1` [Example 16, 3-methoxy-4-(4-methyl-1H-imidazol-1-yl)-N-[(2-phenyl-1,3-thiazol-5-yl)methyl] benzamide], the IC50 was 283 nM.

`COc1cc(C(=O)NCCc2cc(C)ccc2C)ccc1-n1cnc(C)c1` [Example 71, N-[2-(2,5-dimethylphenyl)ethyl]-3-methoxy-4-(4-methyl-1H-imidazol-1-yl) benzamide]: the half-inhibitory concentration (IC50) was determined as 429 nM.

`COc1cc(C(=O)NCc2cccc(Cl)c2)ccc1-n1cnc(C)c1` [Example 84, N-(3-chlorobenzyl)-3-methoxy-4-(4-methyl-1H-imidazol-1-yl) benzamide]: the 50% inhibitory concentration (IC50) worked out at 520 nM.

Take `COc1cc(C(=O)NCCc2c[nH]c3ccc(C)cc23)ccc1-n1cnc(C)c1` [Example 97, 3-methoxy-4-(4-methyl-1H-imidazol-1-yl)-N-[2-(5-methyl-1H-indol-3-yl)ethyl] benzamide]: the IC50 was determined as 634 nM.

For `COc1cc(C(=O)NC(c2ccccc2Cl)c2nc3ccccc3n2C)ccc1-n1cnc(C)c1` (centres unmarked) [Example 96, N-[(2-chlorophenyl)(1-methyl-1H-benzimidazol-2-yl)methyl]-3-methoxy-4-(4-methyl-1H-imidazol-1-yl) benzamide], the IC50 was found to be 630 nM.

For `COc1cc(C(=O)NCC2(c3cccc(C(F)(F)F)c3)CCC2)ccc1-n1cnc(C)c1` [Example 31, 3-methoxy-4-(4-methyl-1H-imidazol-1-yl)-N-({1-[3-(tri-fluoromethyl)phenyl]cyclobutyl}methyl) benzamide], the half-inhibitory concentration (IC50) worked out at 298 nM.

For the molecule `COc1cc(C(=O)N[C@@H](C)c2cccc(-c3ccccc3)c2)ccc1-n1cnc(C)c1` [Example 126, N-[(1S)-1-biphenyl-3-ylethyl]-3-methoxy-4-(4-methyl-1H-imidazol-1-yl) benzamide], the IC50 came to 492 nM.

On to `COc1cc(C(=O)NCC(CO)c2cccc(C(F)(F)F)c2)ccc1-n1cnc(C)c1` (centres unmarked) [Example 35, N-{3-hydroxy-2-[3-(trifluoro-methyl)phenyl]propyl}-3-methoxy-4-(4-methyl-1H-imidazol-1-yl) benzamide], for which the IC50 turned out to be 910 nM.

`COc1cc(C(=O)NCCc2nc3cccc(Cl)c3o2)ccc1-n1cnc(C)c1` [Example 68, N-[2-(7-chloro-1,3-benzoxazol-2-yl)ethyl]-3-methoxy-4-(4-methyl-1H-imidazol-1-yl) benzamide]: the IC50 worked out at 418 nM.

For `COc1cc(C(=O)NCc2ccc(-c3ccc(Cl)cc3)s2)ccc1-n1cnc(C)c1` [Example 49, N-{[5-(4-chlorophenyl)-2-thienyl]methyl}-3-methoxy-4-(4-methyl-1H-imidazol-1-yl) benzamide], the IC50 is 137 nM.

Take `COc1cc(C(=O)NC(C)(C)c2ccc(F)c(F)c2)ccc1-n1cnc(C)c1` [Example 26, N-[1-(3,4-difluoro-phenyl)-1-methylethyl]-3-methoxy-4-(4-methyl-1H-imidazol-1-yl) benzamide]: the 50% inhibitory concentration (IC50) was determined as 787 nM.

For `COc1cc(C(=O)NCc2csc(-c3ccc(Cl)cc3)n2)ccc1-n1cnc(C)c1` [Example 53, N-{[2-(4-chlorophenyl)-1,3-thiazol-4-yl]methyl}-3-methoxy-4-(4-methyl-1H-imidazol-1-yl) benzamide], the IC50 worked out at 306 nM.

On to `COc1cc(C(=O)NCc2sc3ccccc3c2Cl)ccc1-n1cnc(C)c1` [Example 70, N-[(3-chloro-1-benzothien-2-yl)methyl]-3-methoxy-4-(4-methyl-1H-imidazol-1-yl) benzamide], for which the IC50 is 425 nM.

`COc1cccc(C[C@@H]2CCC[C@@H]2NC(=O)c2ccc(-n3cnc(C)c3)c(OC)c2)c1` [Example 63, 3-methoxy-N-[(1S,2S)-2-(3-methoxybenzyl)cyclopentyl]-4-(4-methyl-1H-imidazol-1-yl) benzamide]: the half-maximal inhibitory concentration (IC50) came out at 391 nM.

Take `COc1cc(C(=O)NCCc2cccc(Cl)c2)ccc1-n1cnc(C)c1` [Example 21, N-[2-(3-chloro-phenyl)ethyl]-3-methoxy-4-(4-methyl-1H-imidazol-1-yl) benzamide]: the half-inhibitory concentration (IC50) came to 629 nM.

Turning to `COc1cc(C(=O)NCCc2c[nH]c3ccc(Br)cc23)ccc1-n1cnc(C)c1` [Example 52, N-[2-(5-bromo-1H-indol-3-yl)ethyl]-3-methoxy-4-(4-methyl-1H-imidazol-1-yl) benzamide], the 50% inhibitory concentration (IC50) turned out to be 251 nM.

Take `COc1cc(C(=O)N[C@@H]2CCC[C@@H]2Cc2cccc(F)c2)ccc1-n1cnc(C)c1` [Example 95, N-[(1R,2R)-2-(3-fluorobenzyl)cyclopentyl]-3-methoxy-4-(4-methyl-1H-imidazol-1-yl) benzamide]: the concentration for half-maximal inhibition (IC50) came out at 627 nM.

The same test, now with this note: read-out: Aβ 42 IC50; Geometric mean of 26 determinations; human WT-APP overexpressing CHO cells.
As to `COc1cc(C(=O)NCC2(c3ccc(F)cc3)CCC2)ccc1-n1cnc(C)c1` [Example 13, N-{[1-(4-fluorophenyl)cyclobutyl]methyl}-3-methoxy-4-(4-methyl-1H-imidazol-1-yl) benzamide], the IC50 is 261 nM.

Still in this test, the particulars now being: read-out: Aβ 42 IC50; Geometric mean of at least 2 determinations; human WT-APP overexpressing CHO cells.
As for “1-[4-({3-[(chloro- 5-methylphenoxy) methyl]azetidin- 1-yl}carbonyl)-2- methoxyphenyl]- 4-methyl-1H- imidazole trifluoroacetate salt [Example 139]”, the IC50 came to 557 nM.

(Values after patent publication US20120053165A1, “Novel Phenyl Imidazoles and Phenyl Triazoles As Gamma-Secretase Modulators” (Pfizer Inc., priority 2009, published 2012).)
